# Reference: article PMC6120190, “Identification of two distinct peptide-binding pockets in the SH3 domain of human mixed-lineage kinase 3” (The Journal of Biological Chemistry, 2018)
# No end group written: not given here.
# B1: biotinylated MIP (AIRINPNGTWSRQAETVES-K-biotin) (peptide)
# peptide: AIRINPNGTWSRQAETVESK
# modifications: biotin on the added C-terminal K
# notes: also called immobilized MIP; biotinylated MIP peptide; source: synthetic peptide
# How the values were obtained:
# MLK3 SH3 domain = assay: analytical size-exclusion chromatography of MLK3 SH3-MIP fusion proteins (oligomeric state); format: binding, human; settings: Superdex 200 10/300 GL, 25 mM Tris-HCl, pH 7.4, 500 mM NaCl; for effect of mutation on binding to MLK3 SH3 (fusion proteins, gel filtration): 750 μg/200 μl (Fig. S4); for oligomeric state by size-exclusion chromatography: MIP(1–19) fusion 2 mg/200 μl, MIP(1–13) fusions 750 μg/200 μl
# Excerpt: Two DNA fragments encoding the SH3 domain of MLK3 (UniProt entry Q16584), MLK3 SH3(41–105) and MLK3 SH3(44–103), and four fragments encoding SH3 domain-MIP fusions, MLK3 SH3(41–105)-MIP(1–19), MLK3 SH3(41–105)-MIP(1–13), MLK3 SH3(41–105)-MIP(1–13)W10A, and MLK3 SH3(41–105)-MIP(1–13)R12A, were commercially prepared as gBlocks Gene Fragments. One fragment encoding SH3 domain fused to an NS5A (UniProt entry A0A076MER2) peptide, MLK3 SH3(41–105)-NS5A(2325–2332), was created by amplifying MLK3 SH3(41–105) with T7 promoter primer and a reverse primer (see Table S1). The subsequent insert contained MLK3 SH3(41–105) with the NS5A fragment (aa 2325–2332) at the C terminus. All coding regions were codon-optimized for E. coli expression. DNA fragments were cleaved with NdeI and BamHI-HF (New England Biolabs) and subsequently ligated into a modified version of the pET14b expression vector where the N-terminal His6 tag is followed by a SUMO protease cleavage site. The resulting DNA constructs (verified by sequencing) were transformed into E. coli strain BL21 C41(DE3). Cells were grown at 37 °C in 2× YT medium, which was supplemented with either 50 μg/ml CB or 100 μg/ml ampicillin, protein expression was induced with 0.1–0.3 mM IPTG at an A600 nm of 0.6–0.7, and cells were cultured overnight at 22 °C. Cells were harvested by centrifugation; washed with 200 mM KCl, 50 mM Tris, pH 7.4; and lysed by sonication in 25 mM Tris, pH 7.4, 200 mM KCl, 10 mM MgCl2, 10% glycerol, 1% Triton X-100, 1 mM phenylmethylsulfonyl fluoride (PMSF). Clarified supernatant was loaded onto a 5-ml HisTrap^TM HP Ni-Sepharose column (GE Healthcare), and the column was washed with 25 mM Tris, pH 7.4, 500 mM NaCl supplemented with 10 and 25 mM imidazole. Protein was eluted in the same buffer, which was supplemented with 250 and 500 mM imidazole, and the fractions were pooled together. The His6-SUMO tag was cleaved with SUMO protease while dialyzing against 25 mM Tris, pH 7.4, 500 mM NaCl, 10 mM imidazole, and the tag was removed by loading the sample back onto a nickel column. Collected fractions containing purified protein were concentrated and injected onto an S-200 size-exclusion column (GE Healthcare) equilibrated with 25 mM Tris-HCl, pH 7.4, 500 mM NaCl. To confirm the purity, collected samples were analyzed by SDS-PAGE and detected with Coomassie Brilliant Blue staining. All purified proteins were concentrated and stored at −80 °C.
# To determine oligomeric state of several MLK3 SH3 fusion proteins, samples were injected into a Superdex 200 10/300 GL size-exclusion chromatography column (GE Healthcare) in two independent experiments. Two samples, MLK3 SH3(41–105)-MIP(1–19) and MLK3 SH3(41–105), at 2 mg of protein/200-μl injection, were analyzed in the first experiment (Fig. S3). Three additional samples of MLK3 SH3 domain-MIP fusion proteins were analyzed in a second experiment by injecting 750 μg of protein in 200 μl: MLK3 SH3(41–105)-MIP(1–13), MLK3 SH3(41–105)-MIP(1–13)W10A, and MLK3 SH3(41–105)-MIP(1–13)R12A (Fig. S4). Prior to the injections, the column was equilibrated with 25 mM Tris-HCl, pH 7.4, 500 mM NaCl.
# Figure S3. Comparison of apo vs peptide-bound MLK3 SH3. Gel filtration chromatography of MLK3 SH3 and MLK3 SH3-MIP(1-19) fusion using Superdex 200 10/300 GL. Both constructs were expressed and purified as His6-SUMO fusions and the tag cleaved with SUMO protease. […] PS corresponds to MW standards (kDa).
# Figure S4. W10 and R12 in MIP are critical for intermolecular interaction with MLK3 SH3 in vitro. Three fusion proteins composed of MLK3 SH3(41-105) domain linked via its C-terminus to one of the MIP variant: MIP(1-13) (Blue), MIP(1-13)W10A (Red), or MIP(1-13)R12A (Green), and have been analyzed using gel filtration chromatography. Corresponding sequences of MIP variants are: […] (Blue), […] (Red), and […] (Green). […] The chromatogram corresponding to MLK3 SH3 (Orange) was scaled down by approximately 33%. […]
# MLK3 SH3 domain Y52A = assay: binding to Y52A mutant of MLK3 SH3; design: species or system human; settings: data not shown
# Excerpt: (§1) Two plasmids, gifts from Dr. Gerardo Morfini, University of Illinois at Chicago, encoding a GST protein fused to either the WT or mutant Y52A of the SH3 domain of MLK3 (UniProt entry Q16584; aa 43–104), respectively, between BamHI and EcoRI sites, were transformed into the Escherichia coli strain Rosetta(DE3)pLysS. DNA fragments encoding the SH3 domain of MLK1 (UniProt entry P80192; aa 52–116), MLK2 (UniProt entry Q02779; aa 16–81), and MLK4 (UniProt entry Q5TCX8; aa 38–102) were commercially prepared as gBlocks® Gene Fragments (Integrated DNA Technologies, Inc.). All coding regions were codon-optimized for E. coli expression. DNA fragments were cleaved with BamHI-HF® and EcoRI-HF® (New England Biolabs) and subsequently ligated into pGex-2T vector. The resulting DNA constructs, pGex-MLK1 SH3, pGex-MLK2 SH3, and pGex-MLK4 SH3 (verified by sequencing) were transformed into E. coli strain BL21(DE3).
# GST-MLK3 SH3 [1] = assay: specificity ELISA, MLK3; format: binding, human; settings: biotinylated peptide ≈2 μM on NeutrAvidin; GST-SH3 0.15 μM, 1–1.5 h; anti-GST-HRP; triplicate (Fig. 8)
# Experimental: (§2) Figure 8. Binding of MIP and NS5A peptides to SH3 domain of other members of MLK subfamily (MLK1–4). To determine whether MIP and NS5A can interact with SH3 domains of MLK1–4 proteins, the purified GST-MLK1–4 SH3 domains were incubated with biotinylated peptides, NS5A peptide ([…]-GGG-K-biotin), MIP ([…]-K-biotin), and MIP-R12A ([…]-K-biotin), immobilized on a NeutrAvidin-coated 96-well ELISA plate. Binding of SH3 domain was detected with anti-GST antibody conjugated to HRP. […] See also Fig. S6.
# as §1, with “The resulting DNA constructs, pGex-MLK1 SH3, pGex-MLK2 SH3, and pGex-MLK4 SH3 (verified by sequencing) were transformed into E. coli strain BL21(DE3).” left out
# GST-MLK4 SH3 [2] = assay: specificity ELISA, MLK4; format: binding, human; settings: biotinylated peptide ≈2 μM on NeutrAvidin; GST-SH3 0.15 μM, 1–1.5 h; anti-GST-HRP; triplicate (Fig. 8)
# Experimental: as §2
# as §1, with “The resulting DNA constructs, pGex-MLK1 SH3, pGex-MLK2 SH3, and pGex-MLK4 SH3 (verified by sequencing) were transformed into E. coli strain BL21(DE3).” left out
# GST-MLK2 SH3 = assay: specificity ELISA, MLK2; format: binding, human; settings: biotinylated peptide ≈2 μM on NeutrAvidin; GST-SH3 0.15 μM, 1–1.5 h; anti-GST-HRP; triplicate (Fig. 8)
# Experimental: as §2
# as §1, with “The resulting DNA constructs, pGex-MLK1 SH3, pGex-MLK2 SH3, and pGex-MLK4 SH3 (verified by sequencing) were transformed into E. coli strain BL21(DE3).” left out
# GST-MLK1 SH3 [3] = assay: specificity ELISA, MLK1; format: binding, human; settings: biotinylated peptide ≈2 μM on NeutrAvidin; GST-SH3 0.15 μM, 1–1.5 h; anti-GST-HRP; triplicate (Fig. 8)
# Experimental: as §2
# as §1, with “The resulting DNA constructs, pGex-MLK1 SH3, pGex-MLK2 SH3, and pGex-MLK4 SH3 (verified by sequencing) were transformed into E. coli strain BL21(DE3).” left out
# GST-MLK3 SH3 [4] = assay: phage ELISA of phage-displayed MIP and variants on GST-MLK3 SH3; format: binding, human; settings: original clone/MIP, anti-M13 mAb-HRP detection, experiments in duplicate, averaged
# Experimental: Figure 1. […] The presence of virions in the supernatant was determined by coating the wells of the microtiter plate with an anti-M13 mAb (anti-M13 Ab). Virions, which were retained in the microtiter plate wells, were detected with anti-M13 mAb conjugated to HRP. […] See also Fig. S1.
# Figure 2. […] The MIP sequence, NH2-[…]-COOH, was fused to the N terminus of the pIII capsid protein of bacteriophage M13 ([51]) to facilitate type 3 pentavalent display. Systematic alanine replacements in the peptide were generated by Kunkel mutagenesis ([11]); Ala-1 and Ala-14 were replaced with Val. […] The signal for binding of MIP (WT) to GST-MLK3 SH3 is set as 100%, and other values are normalized to it. […] See also Fig. S2.
# Screens for peptide ligands were performed following a protocol published previously ([11]). […] After three rounds of affinity selection, individual phage clones were isolated, and their binding was evaluated via phage ELISA ([11]). […]
# All constructs were generated via Kunkel mutagenesis ([11], [57], [58]) and facilitated type 3 (pentavalent) display. […] All constructs were verified by DNA sequencing, and phage clones were evaluated for their binding to the target (GST-MLK3 SH3) via phage ELISA ([11]). […]
# GST-MLK3 SH3(43–104) = target: T1, GST-MLK3 SH3(43–104) (human, UniProt Q16584 43-104); assay: ELISA; settings: both partners purified
# T1 construct: also called GST-MLK3 SH3-WT; SH3 WT
# T1 sequence (looked up): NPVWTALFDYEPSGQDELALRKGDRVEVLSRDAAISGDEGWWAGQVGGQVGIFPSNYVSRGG
# GST-MLK1 SH3 [5] = target: T2, GST-MLK1 SH3 (UniProt P80192 52-116); assay: ELISA; settings: both partners purified
# T2 construct: also called SH3 domain of MLK1
# T2 sequence (looked up): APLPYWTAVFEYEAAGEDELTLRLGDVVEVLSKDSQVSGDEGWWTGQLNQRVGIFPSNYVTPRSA
# GST-MLK4 SH3 [6] = target: T3, GST-MLK4 SH3 (UniProt Q5TCX8 38-102); assay: ELISA; settings: both partners purified
# T3 construct: also called SH3 domain of MLK4
# T3 sequence (looked up): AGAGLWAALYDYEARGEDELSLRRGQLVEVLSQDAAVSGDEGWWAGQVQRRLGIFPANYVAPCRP
molecule,measurement,setting,value
"AIRINPNGTASRQ [MIP(1–13)W10A, SH3 domain linked via its C terminus to MIP(1–13)W10A]","effect of mutation on binding to MLK3 SH3 (fusion proteins, gel filtration)",MLK3 SH3 domain,loss of binding to MLK3 SH3
same,oligomeric state by size-exclusion chromatography,MLK3 SH3 domain,elute at a volume corresponding to the size of a monomeric fusion protein
same,oligomeric state by size-exclusion chromatography,MLK3 SH3 domain; listed as MIP(1-13)W10A,elute at fraction corresponding to the size of a monomeric fusion protein
"AIRINPNGTWSRQ [MLK3 SH3(41–105)-MIP(1–13), SH3 domain linked via its C terminus to truncated WT ligand]",oligomeric state by size-exclusion chromatography,MLK3 SH3 domain,eluted as a higher order oligomer
"AIRINPNGTWSAQ [MIP(1–13)R12A, SH3 domain linked via its C terminus to MIP(1–13)R12A]","effect of mutation on binding to MLK3 SH3 (fusion proteins, gel filtration)",MLK3 SH3 domain,loss of binding to MLK3 SH3
same,oligomeric state by size-exclusion chromatography,MLK3 SH3 domain,elute at a volume corresponding to the size of a monomeric fusion protein
same,oligomeric state by size-exclusion chromatography,MLK3 SH3 domain; listed as MIP(1-13)R12A,elute at fraction corresponding to the size of a monomeric fusion protein
"KKAPTPPPRRRRGGGK [NS5A peptide, reference compound]",effect of SH3 mutation Y52A on peptide binding,MLK3 SH3 domain Y52A,disrupts binding
same,binding to MLK3 SH3,GST-MLK3 SH3 [1],could bind
same,binding to MLK4 SH3,GST-MLK4 SH3 [2],could bind
same,binding to MLK2 SH3,GST-MLK2 SH3,could bind
same,binding to MLK1 SH3,GST-MLK1 SH3 [3],could bind
H-IRINPNGTWSRQ-OH [single clone displaying a 12-mer peptide from ANL7 library],binding to GST-MLK3 SH3 in phage ELISA,GST-MLK3 SH3 [4],bound to the wildtype (WT) form of the MLK3 SH3 domain
B1,binding result,GST-MLK3 SH3(43–104),binds
same,binding result,GST-MLK1 SH3 [5],binds
same,binding result,GST-MLK4 SH3 [6],binds
